US10266499B2, “Imidazole derivatives as prodrugs of diclofenac” (priority 2014, dated 2019)
Converted amounts (≈) assume the structure as drawn. Like-named read-outs stand apart in the source and are kept apart here.

Assays:
[1] = tested on: osteoarthritis pain induced by a single injection of MIA; experiment: Monosodium iodoacetate (MIA) model of osteoarthritis, joint compression thresholds; format: in vivo, Sprague-Dawley rats; conditions: for mean joint compression thresholds compared to the vehicle group: 0.3 mg intra-articular; for reversal of osteoarthritis pain compared to vehicle treated animals: single intra-articular administration of 0.3 mg
Source text: Osteoarthritis is the most common form of joint disease. Nearly one third of adults in the United States suffer from osteoarthritis and it is the most common cause of disability in adults in the United States. The monosodium iodoacetate (MIA) model of osteoarthritis described here produces changes in the structure and integrity of the affected cartilage that is very similar to what is seen in human osteoarthritis. Sodium iodoacetate is a metabolic inhibitor that, when injected into the joint space, selectively kills chondrocytes, the cells that form cartilage. Over a period of 2-3 weeks, the loss of cartilage produces a state highly analogous to human osteoarthritis characterized by joint instability, loss of cartilage, and decreased bone quality around the affected joint. These physiological changes are also accompanied by pain in the affected joint.
In this study, osteoarthritis was induced by a single injection of MIA (2 mg) into the synovium of the left knee, which results in increased sensitivity to pressure. For this particular study, the test compounds were given 14 days post-MIA injection to determine if the test compound can reduce the sensitivity.
• Vehicle (0.01% Tween 80 in phosphate buffer) administered intra-articularly at a dose volume of 30 μl on day 0. • Test articles DPX-1-0008, DPX-1-0011, DPX-1-0018, DPX-1-0020, DPX-1-0023, and DPX-1-0024, administered intra-articularly at a dose of 0.3 mg on day 0. • Diclofenac, administered orally at a dose of 10 mg/kg on day 8 to the vehicle group. Methods
A total of 82 male, Sprague-Dawley rats underwent MIA injection with the goal of having 70 animals available for the pharmacology treatment due to 15% failure of developing a pain state. Fourteen days after MIA injection, animals met the inclusion criteria were assigned to one of seven groups (vehicle, test article DPX-1-0008, DPX-1-0011, DPX-1-0018, DPX-1-0020, DPX-1-0023, and DPX-1-0024) and received the assigned treatment. Joint compression thresholds were assessed prior to MIA injection, prior to dosing with control/test articles, and 1, 2, 4, and 7 days post-dosing. Diclofenac served as the positive control for the study. On day 8, animals in the vehicle group received diclofenac (10 mg/kg, PO) and joint compression were assessed prior to, 1 and 2 hours after dosing for all the animals. All animals were euthanized on day 8 following the behavioral assessment.

[2] = Stability in 80% (v/v) human plasma at 37° C.; format: in vitro ADME; conditions: 80% plasma
Method: (§1) The stability of the prodrugs was determined in PBS, 80% human SF, 80% human plasma and 80% rat serum at 37° C. 10, 20 or 50 μL of prodrug solution in MeOH was added to 1.0 mL 80% rat serum, 2.5 mL 80% SF or human plasma or 10.0 mL PBS, respectively to give a final prodrug concentration corresponding to the solubility at pH 7.4 at 37° C. Samples were withdrawn at appropriate intervals depending on the rate of degradation. The samples from the biological medias were added to MeCN (1:2 (v:v)) vortexed and centrifuged (5 min, 10000 RPM) and the supernatant analyzed by HPLC. The 700 μL PBS samples were added to 100 μL PBS and mixed before analysis by HPLC. First a pilot study was performed with n=1 to find the appropriate sampling times and thereafter an experiment with n=3. The stability was determined from the decrease in the area of prodrug.

[3] = Stability in 80% (v/v) human SF at 37° C.; format: in vitro ADME; conditions: 80% (v/v) human SF (synovial fluid), 80% SF batch 210513, 37° C.
Method: as §1

[4] = Stability in 80% (v/v) rat serum at 37° C.; format: in vitro ADME; conditions: pH 7.4, 80% rat serum
Method: as §1

[5] = Solubility in 67 mM phosphate buffer pH 7.4 and in hydrochloride solutions at 37° C.; format: physicochemical; conditions: for solubility thermodynamic: 37 °C, thermodynamic from solid, read-out: S
Method: The determination of the solubility of a prodrug at different pH values of interest according to the present invention is carried by adding excess solid prodrug to a container containing a buffer solution with well-defined pH. The mixture is rotated at constant temperature until an equilibrium between solid prodrug and prodrug in solution has established (that is until the prodrug concentration in the supernatant remains constant). At each measurement the pH of the supernatant is controlled and, if needed, adjusted to the desired pH. In a similar manner the solubility of a prodrug in a tissue fluid including the synovial fluid can be determined. The latter procedure comprises a simple way of testing if the solubility at the selected lower pH is indeed at least 100 times higher than the corresponding solubility in the physiological fluid it is injected into. […] For instance, a decrease in pH from pH 7.4 to 2.0 will result in a 1000-fold increase in the solubility of a base with a pKa value of 5, whereas the solubility will increase by a factor of about 9618 for a base with a pKa value of 6. These predicted alterations in pH dependent solubilities can be calculated from the expression: St=S0*(1+10^pKa-pH) where St is the total solubility at a given pH and S0 is the solubility of the neutral form of the prodrug.
A surplus of prodrug was added to either PBS pH 7.4 or H2O. 0.1 M HCl was added to the H2O to decrease pH to around 3-4. The mixtures were rotated at 37° C. and a sample was withdrawn after approximately 24 and 48 hours or later. The withdrawn sample was filtered through a 0.45 μm Millex®-HV (Millipore, Japan) low protein binding filter (the first 0.5 mL discarded) and a known volume of the sample was diluted. The pH 7.4 samples were diluted with PBS and the acidic samples with mobile phase A (section 2.5). A standard dissolved in PBS was made for the pH 7.4 samples and a standard dissolved in mobile phase A for the acidic samples. The PBS standards used for the standard curves were treated like the samples to avoid false results caused by adsorption. The standard curves were made to cover the concentration interval of the samples after dilution.
From the observed relatively stable concentration of dissolved prodrugs measured in the suspensions after 8-9 day up to 23 days, the solubilities of the prodrugs (Sprodrug) were determined. In this time interval, the rate of appearance of parent drug was determined and an apparent pseudo-zero-order rate constant (k0) was obtained. By assuming that the dissolution rates were much faster than the conversion of the prodrugs to the parent drug, pseudo first-order rate constants (khyd) for cleavage of the prodrugs were calculated according to: […]

[6] = pKa-value using a GLpKa meter; format: physicochemical; conditions: 25° C.
[7] = Stability in PBS pH 7.4 at 37° C.; format: physicochemical; conditions: pH 7.4, PBS pH 7.4, 37° C.
Method: as §1

[8] = hydrochloride solution pH 4.35, 37° C., n = 6

| half-life at 2.7 μg/ml [2] | half-life at 2.7 μg/ml [3] | half-life at 2.7 μg/ml [4] | S (mM) ([5]; 67 mM phosphate buffer pH 7.4, 37° C., n = 6) | solubility thermodynamic ([5]; 67 mM phosphate buffer, pH 7.4, aqueous buffer, 67 mM phosphate buffer pH 7.4, 37° C., n = 6) | S (mM) [5, 8] | S (μg/ml) [5, 8] | solubility thermodynamic ([5]; hydrochloride solution, pH 4.35, aqueous buffer, hydrochloride solution pH 4.35, 37° C., n = 6) | decrease of solubility from pH 4.35 to pH 7.4 ([5]; pH 4.35 vs pH 7.4) | pKa [6] | half-life at 2.7 μg/ml ([7]; read-out: T1/2 (days)) | half-life at 2.7 μg/ml ([7]; read-out: T1/2 (min)) | Structure (SMILES) | mean joint compression thresholds compared to the vehicle group ([1]; 8 days post-dosing) | reversal of osteoarthritis pain compared to vehicle treated animals [1] | mean joint compression thresholds compared to the vehicle group ([1]; 1 day post-dosing) | mean joint compression thresholds compared to baseline values on day 8 ([1]; 10 mg/kg oral, 1 and 2 hours post-dosing) |
| --- | --- | --- | --- | --- | --- | --- | --- | --- | --- | --- | --- | --- | --- | --- | --- | --- |
|  |  |  |  |  |  |  |  |  |  |  |  | O=C(Cc1ccccc1Nc1c(Cl)cccc1Cl)OCCCn1ccnc1 [DPX-1-0018] | significantly increased | significantly reversed |  |  |
| 5.1 ± 0.5 min | 39.8 ± 2.8 min | 6.1 ± 0.4 min | 0.0064 ± 0.0005 mM | ~2.7 µg/mL (≈ 0.00645 mM) | 7.2 ± 0.1 mM | 3019 µg/mL | 3020 ± 62 µg/mL (≈ 7.22 mM) | 1118 fold | 7.92 | 0.75 days | 0.752 ± 0.114 days | Cc1ncn(CCOC(=O)Cc2ccccc2Nc2c(Cl)cccc2Cl)c1C [DPX-1-0023] |  | significantly reversed | significantly increased |  |
|  |  |  |  |  |  |  |  |  |  |  |  | O=C(O)Cc1ccccc1Nc1c(Cl)cccc1Cl [diclofenac] |  |  |  | significantly increased |
